Measurements: patent US20110053900A1, “PROGESTERONE ANTAGONISTS SUCH AS CDB-4124 IN THE TREATMENT OF BREAST CANCER” (Repros Therapeutics inc, priority 2008, published 2011)

Tests used:
[1] = tested on: rabbit progesterone receptor (rbPR) and glucocorticoid receptor (rbGR); assay: Receptor-binding assays, ratio of relative binding affinities rbPR/rbGR; settings: RBA = EC50 of standard/EC50 of test compound x 100
Protocol: Certain antiprogestins were tested in receptor-binding assays for their ability to bind rabbit progesterone receptor (rbPR) and glucocorticoid receptor (rbGR). Briefly, cytosol containing PR or GR were prepared in TEGMD buffer (10 mM Tris, pH 7.2, 1.5 mM EDTA, 0.2 mM sodium molybdate, 10% glycerol, 1 mM DTT) from uterus or thymus, respectively, of estradiol-primed immature rabbits. For PR binding, the cytosol was incubated with 6 nM 1,2-[^3H]progesterone (50.0 Ci/mmole) and competitors were added at concentrations from 2 to 100 nM. For binding to GR, the cytosol was incubated with 6 nM 6,7-[^3H]-dexamethasone (40 Ci/mmol) and test compounds were added at concentrations from 20 to 100 nM. After overnight incubation at 4° C., bound and unbound [^3H] steroids were separated by addition of dextran-coated charcoal and centrifugation at 2100×g for 15 min at 4
C. Supernatants containing the [3H]-steroid receptor complexes were decanted into vials containing 4 ml Optifluor (Packard Instrument Co.), vortexed, equilibrated in a liquid scintillation counter for 30 minutes and then counted for 2 minutes. The ECso (Effective Concentration) for each standard curve and each of the compound curves was determined by entering the counting data into a four parameter sigmoidal computer program (RiaSmart® Immunoassay Data Reduction Program, Packard Instrument Co., Meriden, Conn.). Relative binding affinity (RBA) for each compound was calculated using the following equation: EC50 of standard/EC50 of test compound×100. The standards for the PR and GR assays were unlabeled progesterone and dexamethasone, respectively. The results of these experiments are summarized in Table 1, as a ratio of the relative binding affinities of each compound for the rbPR and rbGR receptors (rbPR/rbGR).

rabbit uterus = assay: Anti-McGinty and anti-Clauberg assays; assay type: in vivo; settings: average of anti-McGinty and anti-Clauberg results relative to CDB-2914 = 1.00
Description: Also given in the Table are the relative biological activities of the same compounds in the rabbit uterus by the anti-McGinty and anti-Clauberg assays. Compound CDB-2914 (listed at the end of the Table) was used as the control or reference compound (rabbit Biological Activity=1.00) for these experiments because results of experiments using CDB-2914 have been published before (Hild-Petito et al., 1996; Passaro et al., 1997; Reel et al., 1998; Lamer et al., 2000). For the anti-McGinty test, immature female rabbits received a subcutaneous injection of 5 μg estradiol in 10% ethanol/sesame oil daily for 6 consecutive days. On day 7, animals underwent sterile abdominal surgery to ligate a 3-4 cm segment of both uterine horns. The test compound in appropriate solvent was injected intraluminally into the ligated segment of one uterine horn and vehicle alone into the other. A stimulating dose of progesterone (267 μg/day) was administered subcutaneously to each rabbit daily for the next three days to induce endometrial proliferation. All animals were sacrificed at day 10 for removal of the uterus where a segment central to the ligatures was removed and fixed in 10% neutral buffered formalin and submitted for histological processing. Five micron sections stained with hematoxylin and cosin were evaluated microscopically for the degree of endometrial glandular proliferation. The percent inhibition of endometrial proliferation for each rabbit was calculated and the mean of the group of five animals recorded. For the Anti-Clauberg test, immature female rabbits received a subcutaneous injection of 5 μg estradiol in 10% ethanol/sesame oil daily for 6 consecutive days. On day 7, animals received progesterone by subcutaneous injection (160 μg/day) and the experimental compound in appropriate vehicle orally or subcutaneously for five consecutive days. One group of rabbits received progesterone only. Twenty-four hours after the last dose, all animals were sacrificed for removal of the uterus which was cleaned of all fat and connective tissue, weighed to the nearest 0.2 mg and placed in 10% neutral buffered formalin for subsequent histological processing. Five micron sections stained with hematoxylin and eosin were evaluated microscopically for the degree of endometrial glandular proliferation. The percent inhibition of endometrial proliferation at each dose level of the test compound was derived by comparison with progesterone-stimulated animals alone. The data presented in Table 1 (rabbit Biol. Act.) reflects the average of the results obtained for each compound by the anti-McGinty and anti-Clauberg assays relative to CDB-2914.

| Compound | rbPR/rbGR (ratio of the relative binding affinities for rbPR and rbGR) [1] | rabbit Biol. Act. (rabbit uterus) |
| --- | --- | --- |
| CCC(=O)OCC(=O)[C@@]1(OC(C)=O)CCC2C3CCC4=CC(=O)CCC4=C3C(c3ccc(N(C)C)cc3)C[C@@]21C (stereo partly drawn) [CDB-4247, 21-propionyloxy-17α-acetoxy-11β-(4 N,N-dimethylaminophenyl)-19-norpregna-4,9-diene-3,20-dione] | 2.06 |  |
| CC(=O)O[C@]1(C(=O)COC(=O)CN)CCC2C3CCC4=CC(=O)CCC4=C3C(c3ccc(N(C)C)cc3)C[C@@]21C (stereo partly drawn) [CDB-4306, 21-glycinate-17α-acetoxy-11β-(4 N,N-dimethylaminophenyl)-19-norpregna-4,9-diene-3,20-dione] | 5.90 | 0.95 |
| CCOCC(=O)[C@@]1(OC(C)=O)CCC2C3CCC4=CC(=O)CCC4=C3C(c3ccc(N(C)C)cc3)C[C@@]21C (stereo partly drawn) [CDB-4167, 21-ethyloxy-17α-acetoxy-11β-(4 N,N-dimethylaminophenyl)-19-norpregna-4,9-diene-3,20-dione] | 1.69 |  |
| COCC(=O)[C@@]1(OC(C)=O)CCC2C3CCC4=C(C(=O)c5ccccc5)C(=O)CCC4=C3C(c3ccc(N(C)C)cc3)C[C@@]21C (stereo partly drawn) [CDB-4239, 4-benzoin-21-methoxy-17α-acetoxy-11β-(4 N,N-dimethylaminophenyl)-19-norpregna-4,9-diene-3,20-dione] | 14.80 |  |
| CCOCC(=O)[C@@]1(OC(C)=O)CCC2C3CCC4=CC(=NO)CCC4=C3C(c3ccc(N(C)C)cc3)C[C@@]21C (stereo partly shown) [CDB-4226] | 1.51 | 0.54 |
| CC(=O)O[C@]1(C(=O)CSC#N)CCC2C3CCC4=CC(=O)CCC4=C3C(c3ccc(N(C)C)cc3)C[C@@]21C (stereo partly drawn) [CDB-4352, 21-cyanothio-17α-acetoxy-11β-(4 N,N-dimethylaminophenyl)-19 norpregna-4,9-diene-3,20-dione] | 4.21 |  |
| CC(=O)OCC(=O)[C@@]1(OC(C)=O)CCC2C3CCC4=CC(=NO)CCC4=C3C(c3ccc(N(C)C)cc3)C[C@@]21C (stereo partly drawn) [CDB-4206, 3-hydroxyamino-21-acetoxy-17α-acetoxy-11β-(4 N,N-dimethylaminophenyl)-19-norpregna-4,9-diene-3,20-dione] | 1.44 | 0.68 |
| CC(=O)O[C@]1(C(=O)CO)CCC2C3CCC4=CC(=O)CCC4=C3C(c3ccc(N(C)C)cc3)C[C@@]21C (stereo partly drawn) [CDB-4152, 21-hydroxy-17α-acetoxy-11β-(4 N,N-dimethylaminophenyl)-19-norpregna-4,9-diene-3,20-dione] | 0.82 |  |
| CSCC(=O)[C@@]1(OC(C)=O)CCC2C3CCC4=CC(=O)CCC4=C3C(c3ccc(N(C)C)cc3)C[C@@]21C (stereo partly drawn) [CDB-4223, 21-methylthio-17α-acetoxy-11β-(4 N,N-dimethylaminophenyl)-19-norpregna-4,9-diene-3,20-dione] | 1.17 |  |
| CC(=O)O[C@]1(C(=O)CF)CCC2C3CCC4=CC(=O)CCC4=C3C(c3ccc(N(C)C)cc3)C[C@@]21C (stereo partly drawn) [CDB-4058, 21-flourine-17α-acetoxy-11β-(4 N,N-dimethylaminophenyl)-19-norpregna-4,9-diene-3,20-dione] | 1.08 |  |
| C=COCC(=O)[C@@]1(OC(C)=O)CCC2C3CCC4=CC(=O)CCC4=C3C(c3ccc(N(C)C)cc3)C[C@@]21C (stereo partly drawn) [CDB-4361, 21-vinyl ether-17α-acetoxy-11β-(4 N,N-dimethylaminophenyl)-19-norpregna-4,9-diene-3,20-dione] | 7.20 |  |
| 21-BMD-17α-acetoxy-11β-(4 N,N-dimethylaminophenyl)-19-norpregna-4,9-diene-3,20-dione [CDB-4111] | 1.30 | 0.36 |
| 21-(Cyp*-hydroxy)-17α-acetoxy-11β-(4 N,N-dimethylaminophenyl)-19-norpregna-4,9-diene-3,20-dione [CDB-4125] | 1.19 | 1.55 |
| COCC(=O)C1(OC(C)=O)CCC2C3CCC4=CC(=NO)CCC4=C3C(c3ccc(N(C)C)cc3)C[C@@]21C (stereo partly drawn) [CDB-4205, 3-hydroxyamino-21-methoxy-17α-acetoxy-11β-(4 N,N-dimethylaminophenyl)-19-norpregna-4,9-diene-3,20-dione] | 1.99 | 1.00 |
| CC(=O)O[C@]1(C2COC(C)(C)O2)CCC2C3CCC4=CC(=O)CCC4=C3C(c3ccc(N(C)C)cc3)C[C@@]21C (stereo partly drawn) [CDB-4110, 21-acetonide-17α-acetoxy-11β-(4 N,N-dimethylaminophenyl)-19-norpregna-4,9-diene-3,20-dione] | 0.70 |  |
| 21-methoxyacetyl-17α-acetoxy-11β-(4 N,N-dimethylaminophenyl)-19-norpregna-4,9-diene-3,20-dione [CDB-4362] | 4.74 | 1.25 |
| CC(=O)O[C@]1(C(=O)C[S+](C)[O-])CCC2C3CCC4=CC(=O)CCC4=C3C(c3ccc(N(C)C)cc3)C[C@@]21C (stereo partly drawn) [CDB-4101, 21-methoxythio-17α-acetoxy-11β-(4 N,N-dimethylaminophenyl)-19-norpregna-4,9-diene-3,20-dione] | 0.61 |  |
| 4-benzoin-21-acetylthio-17α-acetoxy-11β-(4 N,N-dimethylaminophenyl)-19-norpregna-4,9-diene-3,20-dione [CDB-4119] | 2.60 | 0.10 |
| CCC(=O)[C@@]1(OC(C)=O)CCC2C3CCC4=CC(=O)CCC4=C3C(c3ccc(N(C)C)cc3)C[C@@]21C (stereo partly drawn) [CDB-4030, 21-methyl-17α-acetoxy-11β-(4 N,N-dimethylaminophenyl)-19-norpregna-4,9-diene-3,20-dione] | 0.96 |  |
| CC(=O)O[C@]1(C(=O)CBr)CCC2C3CCC4=CC(=O)CCC4=C3C(c3ccc(N(C)C)cc3)C[C@@]21C (stereo partly drawn) [CDB-4031, 21-bromine-17α-acetoxy-11β-(4 N,N-dimethylaminophenyl)-19-norpregna-4,9-diene-3,20-dione] | 0.69 |  |
